# In the supplement of paper PMC10307832:
# Columns and labels:
# Assay in all cases: relative viability (nuclei count vs DMSO), 5 days (fraction); higher = more cells survive
# [1] = test system: 201T
# Outline: (§1)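 A single step with final 0.05% Triton X-100, 1% formaldehyde and 1 ug/ml Hoechst fixed the cells and stained nuclei 5 days after treatment. Lung cancer cell lines in 1536-well plates had been treated by pin tool the day after seeding with one drug alone or a fixed anchor-drug dose plus five library-drug doses (not always all listed) in √10 steps, and nuclei were counted on 4× images. Relative viability is the ratio of nuclei in treated wells to nuclei in vehicle wells, taken as the median of duplicate plates.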
# [2] = test system: BEN
# Outline: as §1
# [3] = test system: EMC-BAC-2
# Outline: as §1
# [4] = test system: HARA
# Outline: as §1
# [5] = test system: LCLC-103H
# Outline: as §1
# [6] = test system: LOU-NH91
# Outline: as §1
# [7] = test system: NCI-H1395
# Outline: as §1
# [8] = test system: NCI-H1666
# Outline: as §1
# [9] = test system: NCI-H1993
# Outline: as §1
# [10] = test system: NCI-H2009
# Outline: as §1
# [11] = test system: NCI-H2023
# Outline: as §1
# [12] = test system: NCI-H2087
# Outline: as §1
# [13] = test system: NCI-H2126
# Outline: as §1
# [14] = test system: NCI-H2347
# Outline: as §1
# [15] = test system: NCI-H23
# Outline: as §1
# [16] = test system: NCI-H3122
# Outline: as §1
# [17] = test system: NCI-H441
# Outline: as §1
# [18] = test system: NCI-H596
# Outline: as §1
# [19] = test system: NCI-H647
# Outline: as §1
# [20] = test system: NCI-H650
# Outline: as §1
# [21] = test system: NCI-H727
# Outline: as §1
# [22] = test system: NCI-H838
# Outline: as §1
smiles,measurement,setting,value
Clc1ccc(Nc2nnc(Cc3ccncc3)c3ccccc23)cc1 [Vatalanib] + COc1cc2c(Oc3ccc(NC(=O)C4(C(=O)Nc5ccc(F)cc5)CC4)cc3F)ccnc2cc1OCCCN1CCOCC1 [Foretinib] (partner 0.25 µM),relative viability,[1]; first compound 0.04 µM,1.17
same,relative viability,[1]; first compound 0.1265 µM,0.976
same,relative viability,[1]; first compound 0.4 µM,1.16
same,relative viability,[1]; first compound 1.265 µM,1.09
same,relative viability,[1]; first compound 4 µM,0.984
same,relative viability,[2]; first compound 0.04 µM,0.705
same,relative viability,[2]; first compound 0.1265 µM,0.526
same,relative viability,[2]; first compound 0.4 µM,0.845
same,relative viability,[2]; first compound 1.265 µM,0.511
same,relative viability,[2]; first compound 4 µM,0.696
same,relative viability,[3]; first compound 0.04 µM,0.826
same,relative viability,[3]; first compound 0.1265 µM,1.01
same,relative viability,[3]; first compound 0.4 µM,1.09
same,relative viability,[3]; first compound 1.265 µM,0.919
same,relative viability,[3]; first compound 4 µM,1.02
same,relative viability,[4]; first compound 0.04 µM,0.853
same,relative viability,[4]; first compound 0.1265 µM,0.757
same,relative viability,[4]; first compound 0.4 µM,0.807
same,relative viability,[4]; first compound 1.265 µM,0.92
same,relative viability,[4]; first compound 4 µM,0.852
same,relative viability,[5]; first compound 0.04 µM,0.829
same,relative viability,[5]; first compound 0.1265 µM,0.705
same,relative viability,[5]; first compound 0.4 µM,0.752
same,relative viability,[5]; first compound 1.265 µM,0.739
same,relative viability,[5]; first compound 4 µM,0.756
same,relative viability,[6]; first compound 0.04 µM,0.887
same,relative viability,[6]; first compound 0.1265 µM,0.956
same,relative viability,[6]; first compound 1.265 µM,0.937
same,relative viability,[6]; first compound 4 µM,0.91
same,relative viability,[7]; first compound 0.04 µM,0.994
same,relative viability,[7]; first compound 0.1265 µM,1.1
same,relative viability,[7]; first compound 0.4 µM,1.08
same,relative viability,[7]; first compound 1.265 µM,0.938
same,relative viability,[7]; first compound 4 µM,1.02
same,relative viability,[8]; first compound 0.04 µM,1
same,relative viability,[8]; first compound 0.1265 µM,1.02
same,relative viability,[8]; first compound 0.4 µM,0.997
same,relative viability,[8]; first compound 1.265 µM,0.962
same,relative viability,[8]; first compound 4 µM,0.925
same,relative viability,[9]; first compound 0.04 µM,0.739
same,relative viability,[9]; first compound 0.1265 µM,0.745
same,relative viability,[9]; first compound 0.4 µM,0.806
same,relative viability,[9]; first compound 1.265 µM,0.739
same,relative viability,[9]; first compound 4 µM,0.75
same,relative viability,[10]; first compound 0.04 µM,1.22
same,relative viability,[10]; first compound 0.1265 µM,1.14
same,relative viability,[10]; first compound 0.4 µM,1.24
same,relative viability,[10]; first compound 1.265 µM,1.2
same,relative viability,[10]; first compound 4 µM,1.26
same,relative viability,[11]; first compound 0.04 µM,0.881
same,relative viability,[11]; first compound 0.1265 µM,0.974
same,relative viability,[11]; first compound 0.4 µM,1.04
same,relative viability,[11]; first compound 1.265 µM,0.753
same,relative viability,[11]; first compound 4 µM,1.04
same,relative viability,[12]; first compound 0.04 µM,1.15
same,relative viability,[12]; first compound 0.1265 µM,1.08
same,relative viability,[12]; first compound 0.4 µM,1.27
same,relative viability,[12]; first compound 1.265 µM,0.958
same,relative viability,[12]; first compound 4 µM,1.03
same,relative viability,[13]; first compound 0.04 µM,1.15
same,relative viability,[13]; first compound 0.1265 µM,1.23
same,relative viability,[13]; first compound 0.4 µM,1.25
same,relative viability,[13]; first compound 1.265 µM,1.1
same,relative viability,[13]; first compound 4 µM,1.12
same,relative viability,[14]; first compound 0.1265 µM,0.676
same,relative viability,[14]; first compound 0.4 µM,0.656
same,relative viability,[14]; first compound 1.265 µM,1.05
same,relative viability,[14]; first compound 4 µM,0.785
same,relative viability,[15]; first compound 0.04 µM,0.928
same,relative viability,[15]; first compound 0.1265 µM,0.945
same,relative viability,[15]; first compound 0.4 µM,0.931
same,relative viability,[15]; first compound 1.265 µM,0.796
same,relative viability,[15]; first compound 4 µM,1.02
same,relative viability,[16]; first compound 0.04 µM,0.997
same,relative viability,[16]; first compound 0.1265 µM,0.978
same,relative viability,[16]; first compound 0.4 µM,0.939
same,relative viability,[16]; first compound 1.265 µM,0.897
same,relative viability,[16]; first compound 4 µM,0.954
same,relative viability,[17]; first compound 0.04 µM,0.994
same,relative viability,[17]; first compound 0.1265 µM,0.977
same,relative viability,[17]; first compound 0.4 µM,1.15
same,relative viability,[17]; first compound 1.265 µM,0.881
same,relative viability,[17]; first compound 4 µM,0.893
same,relative viability,[18]; first compound 0.04 µM,0.775
same,relative viability,[18]; first compound 0.1265 µM,1.06
same,relative viability,[18]; first compound 0.4 µM,0.909
same,relative viability,[18]; first compound 1.265 µM,0.81
same,relative viability,[18]; first compound 4 µM,0.771
same,relative viability,[19]; first compound 0.04 µM,1.12
same,relative viability,[19]; first compound 0.1265 µM,1.2
same,relative viability,[19]; first compound 0.4 µM,1.28
same,relative viability,[19]; first compound 1.265 µM,1.18
same,relative viability,[19]; first compound 4 µM,1.1
same,relative viability,[20]; first compound 0.04 µM,1.08
same,relative viability,[20]; first compound 0.1265 µM,1.01
same,relative viability,[20]; first compound 1.265 µM,0.973
same,relative viability,[20]; first compound 4 µM,0.978
same,relative viability,[21]; first compound 0.04 µM,0.901
same,relative viability,[21]; first compound 0.1265 µM,0.724
same,relative viability,[21]; first compound 0.4 µM,0.703
same,relative viability,[21]; first compound 1.265 µM,0.572
same,relative viability,[21]; first compound 4 µM,0.925
same,relative viability,[22]; first compound 0.04 µM,1.11
same,relative viability,[22]; first compound 0.1265 µM,1.03
same,relative viability,[22]; first compound 0.4 µM,1.13
same,relative viability,[22]; first compound 1.265 µM,1.04
same,relative viability,[22]; first compound 4 µM,1.01
